Measurements published in ChEMBL document CHEMBL1201862, “PubChem BioAssay data set” (2004).
The source made the active and inactive calls.

What was measured:
Estrogen receptor = target: T1, Estrogen receptor (Homo sapiens, UniProt P03372);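 note: potency for inhibiting coactivator peptide recruitment to the receptor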
T1 sequence (P03372 whole entry): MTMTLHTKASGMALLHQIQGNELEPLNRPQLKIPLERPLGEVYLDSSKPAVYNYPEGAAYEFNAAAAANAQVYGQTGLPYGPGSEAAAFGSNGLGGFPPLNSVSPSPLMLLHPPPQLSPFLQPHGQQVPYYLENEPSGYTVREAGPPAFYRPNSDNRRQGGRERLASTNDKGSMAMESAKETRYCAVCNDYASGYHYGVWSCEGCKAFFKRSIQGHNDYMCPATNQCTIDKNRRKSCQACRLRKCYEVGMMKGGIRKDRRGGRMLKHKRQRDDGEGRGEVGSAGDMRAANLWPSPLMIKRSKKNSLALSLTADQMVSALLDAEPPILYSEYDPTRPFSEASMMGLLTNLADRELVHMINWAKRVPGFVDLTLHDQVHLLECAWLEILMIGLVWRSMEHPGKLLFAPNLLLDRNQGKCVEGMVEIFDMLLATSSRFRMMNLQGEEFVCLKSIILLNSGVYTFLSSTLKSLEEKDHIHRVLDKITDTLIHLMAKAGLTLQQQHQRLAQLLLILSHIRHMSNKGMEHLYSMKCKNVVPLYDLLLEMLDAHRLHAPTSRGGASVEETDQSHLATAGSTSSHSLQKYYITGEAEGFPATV

fMet-Leu-Phe receptor = fMet-Leu-Phe receptor (Homo sapiens, UniProt P21462); assay: FPR ligands, dose response (AID 519); type: functional
fMet-Leu-Phe receptor, sequence (P21462 whole entry): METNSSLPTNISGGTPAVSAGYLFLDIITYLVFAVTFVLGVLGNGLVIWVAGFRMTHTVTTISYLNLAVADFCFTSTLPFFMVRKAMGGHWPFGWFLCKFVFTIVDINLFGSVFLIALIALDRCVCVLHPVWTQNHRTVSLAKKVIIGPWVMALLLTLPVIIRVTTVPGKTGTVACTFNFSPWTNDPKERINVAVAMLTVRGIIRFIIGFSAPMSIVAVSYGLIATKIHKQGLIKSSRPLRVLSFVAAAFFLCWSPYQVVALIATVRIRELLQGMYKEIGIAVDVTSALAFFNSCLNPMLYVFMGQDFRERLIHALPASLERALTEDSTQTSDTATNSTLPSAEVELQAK

[1] = target: G-protein coupled receptor 55 (Homo sapiens, UniProt Q9Y2T6); assay: GPR55 antagonists blocking LPI-driven arrestin recruitment, primary screen, imaging, U2OS, beta-arrestin-GFP, LPI agonist (AID 2013); type: functional;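 note: antagonist potency measured as reduced agonist-driven arrestin aggregation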
G-protein coupled receptor 55, sequence (Q9Y2T6 whole entry): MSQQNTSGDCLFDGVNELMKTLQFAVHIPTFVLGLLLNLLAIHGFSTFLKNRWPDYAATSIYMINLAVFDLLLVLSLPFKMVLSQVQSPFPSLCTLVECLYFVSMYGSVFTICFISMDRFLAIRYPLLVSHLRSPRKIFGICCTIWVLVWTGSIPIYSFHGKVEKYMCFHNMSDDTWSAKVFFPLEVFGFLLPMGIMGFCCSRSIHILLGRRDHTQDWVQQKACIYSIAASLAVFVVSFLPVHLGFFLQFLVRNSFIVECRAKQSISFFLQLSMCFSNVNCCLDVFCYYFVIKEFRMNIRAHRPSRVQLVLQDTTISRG

[2] = target: T2, Mannose-6-phosphate isomerase (Homo sapiens, UniProt P34949); assay: human PMI inhibitors, high substrate, primary screen, biochemical, fluorescence intensity, high mannose 6-phosphate (AID 1220)
T2 sequence (P34949 whole entry): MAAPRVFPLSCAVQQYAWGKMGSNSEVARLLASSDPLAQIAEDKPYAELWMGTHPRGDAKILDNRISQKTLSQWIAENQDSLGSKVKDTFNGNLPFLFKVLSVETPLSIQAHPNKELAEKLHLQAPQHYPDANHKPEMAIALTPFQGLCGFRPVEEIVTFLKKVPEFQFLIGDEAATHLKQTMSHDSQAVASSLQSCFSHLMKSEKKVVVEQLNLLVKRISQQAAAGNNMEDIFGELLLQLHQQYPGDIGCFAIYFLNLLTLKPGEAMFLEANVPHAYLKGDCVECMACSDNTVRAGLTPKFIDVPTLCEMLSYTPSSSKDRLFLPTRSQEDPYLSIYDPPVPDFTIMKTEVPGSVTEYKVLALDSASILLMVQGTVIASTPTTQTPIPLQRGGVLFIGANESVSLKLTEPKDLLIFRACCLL

[3] = target: T2, Mannose-6-phosphate isomerase; assay: inhibitors of human PMI, primary screen, biochemical, fluorescence intensity, coupled assay (AID 1209)
[4] = target: Fructose-bisphosphate aldolase (Mycobacterium tuberculosis, UniProt P9WQA3); assay: Fluorescence-based biochemical high throughput dose response assay for inhibitors of the fructose-bisphosphate aldolase (FBA) of M. tuberculosis.; type: functional
Fructose-bisphosphate aldolase, sequence (P9WQA3 whole entry, the tested form may be a part): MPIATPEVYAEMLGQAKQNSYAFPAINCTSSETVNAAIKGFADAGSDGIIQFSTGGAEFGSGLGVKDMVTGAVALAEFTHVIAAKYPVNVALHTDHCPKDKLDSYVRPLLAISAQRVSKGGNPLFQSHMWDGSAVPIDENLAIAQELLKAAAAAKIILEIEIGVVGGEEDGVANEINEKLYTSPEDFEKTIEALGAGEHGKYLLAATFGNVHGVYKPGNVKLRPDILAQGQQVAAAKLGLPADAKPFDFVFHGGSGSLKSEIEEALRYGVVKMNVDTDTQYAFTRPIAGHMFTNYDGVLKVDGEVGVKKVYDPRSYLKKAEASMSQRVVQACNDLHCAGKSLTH

[5] = target: Disintegrin and metalloproteinase domain-containing protein 17 (Homo sapiens, UniProt P78536); assay: ADAM17 protease inhibitors, dose response, counter-screen for ADAM10 exosite inhibitor project, biochemical, quenched FRET substrate (AID 743253)
Disintegrin and metalloproteinase domain-containing protein 17, sequence (P78536 whole entry, the tested form may be a part): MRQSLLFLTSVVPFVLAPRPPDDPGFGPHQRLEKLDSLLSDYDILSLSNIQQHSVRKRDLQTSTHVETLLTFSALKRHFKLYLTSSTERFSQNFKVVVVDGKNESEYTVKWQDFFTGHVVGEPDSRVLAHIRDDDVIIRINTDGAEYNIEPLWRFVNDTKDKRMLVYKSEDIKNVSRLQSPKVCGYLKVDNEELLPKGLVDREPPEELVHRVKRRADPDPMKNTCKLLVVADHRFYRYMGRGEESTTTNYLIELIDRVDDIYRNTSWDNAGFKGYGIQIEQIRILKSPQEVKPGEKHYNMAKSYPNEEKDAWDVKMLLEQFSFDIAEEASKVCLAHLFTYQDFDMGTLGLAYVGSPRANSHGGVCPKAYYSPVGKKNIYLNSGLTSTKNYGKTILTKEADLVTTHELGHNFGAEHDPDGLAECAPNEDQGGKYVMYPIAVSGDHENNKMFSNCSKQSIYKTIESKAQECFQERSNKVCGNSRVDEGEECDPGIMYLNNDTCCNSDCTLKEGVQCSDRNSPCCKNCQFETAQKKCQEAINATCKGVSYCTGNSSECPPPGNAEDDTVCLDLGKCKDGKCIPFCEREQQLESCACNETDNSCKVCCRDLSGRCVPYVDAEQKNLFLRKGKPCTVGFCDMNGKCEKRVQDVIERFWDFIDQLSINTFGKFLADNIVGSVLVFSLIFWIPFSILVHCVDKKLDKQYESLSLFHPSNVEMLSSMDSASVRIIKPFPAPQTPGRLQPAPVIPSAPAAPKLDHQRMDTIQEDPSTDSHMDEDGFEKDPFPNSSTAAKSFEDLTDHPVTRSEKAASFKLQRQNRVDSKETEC

[6] = ADAM10 inhibitors, peptide cleavage, dose response, biochemical, QFRET (AID 743254);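 note: ADAM10 enzyme with the DM2 quenched FRET peptide as substrate; EDANS fluorescence gain as the protease cuts the substrate; inhibitor potency against ADAM10 proteolytic activity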
[7] = cytotoxicity toward NIH3T3 fibroblasts, dose response, counter-screen, cell-based, ATP luminescence, mouse fibroblasts (AID 2010); type: functional;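 note: cells exposed to compound for about 90 hours before reading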
[8] = inhibitors of intracellular T. cruzi replication, confirmation, NIH3T3 host cells, beta-gal luminescence (AID 2044); type: functional, cell-based;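 note: intracellular parasites grown in NIH/3T3 mouse fibroblasts as host cells; luminescent beta-galactosidase reporter signal from transgenic T. cruzi replicating inside host cells; inhibitors lower the luminescence signal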
[9] = Luminescence Cell-Based Dose Retest to Confirm Inhibitors of Cancer Stem Cells. [Related pubchem assays (depositor defined):AID2717, AID2721]; type: functional; details: Homo sapiens
[10] = THP-1 cell cytotoxicity, dose response, cytotoxicity control for Vif-APOBEC3G degradation inhibitor project, THP-1 cells (AID 1117359); type: functional; details: Human immunodeficiency virus 1, THP-1
Caspase-6 = target: T3, Caspase-6 (Homo sapiens, UniProt P55212); assay: human caspase-6 inhibitors, dose response, biochemical, VEID-R110 fluorescence, cherry-pick (AID 720632)
T3 sequence (P55212 whole entry): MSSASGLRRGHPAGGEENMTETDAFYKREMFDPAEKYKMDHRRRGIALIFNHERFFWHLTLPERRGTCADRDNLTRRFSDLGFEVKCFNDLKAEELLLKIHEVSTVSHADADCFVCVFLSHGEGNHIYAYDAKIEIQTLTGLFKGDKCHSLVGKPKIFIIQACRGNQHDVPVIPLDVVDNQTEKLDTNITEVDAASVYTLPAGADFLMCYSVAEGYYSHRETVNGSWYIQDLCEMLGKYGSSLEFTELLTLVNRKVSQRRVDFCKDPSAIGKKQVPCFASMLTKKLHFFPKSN

Protein Tat = target: T4, Protein Tat (Human immunodeficiency virus type 1 group M subtype B (isolate HXB2)(HIV-1), UniProt P04608); type: functional;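 note: tat binding to TAR RNA read out by fluorescence polarization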
T4 sequence (P04608 whole entry): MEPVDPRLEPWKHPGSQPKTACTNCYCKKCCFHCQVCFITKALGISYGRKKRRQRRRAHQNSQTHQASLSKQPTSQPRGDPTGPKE

Caspase-8 = Caspase-8 (Homo sapiens, UniProt Q14790); assay: caspase-8 inhibition counter-screen, dose response, selectivity assay for caspase-6 inhibitor project, biochemical, Z-IETD-R110 fluorescence, cherry-picked samples (AID 743294)
Caspase-8, sequence (Q14790 217-374 limits assumed): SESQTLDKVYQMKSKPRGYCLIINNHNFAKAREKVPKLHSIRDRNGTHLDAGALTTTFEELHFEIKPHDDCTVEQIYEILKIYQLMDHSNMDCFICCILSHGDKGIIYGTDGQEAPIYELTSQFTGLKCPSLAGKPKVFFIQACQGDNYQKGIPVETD
Caspase-8, sequence (Q14790 385-479 limits assumed): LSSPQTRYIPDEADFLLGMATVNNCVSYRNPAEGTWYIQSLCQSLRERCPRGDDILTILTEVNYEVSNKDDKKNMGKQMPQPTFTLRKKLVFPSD

Caspase-7 = target: T5, Caspase-7 (Homo sapiens, UniProt P55210); assay: human caspase-7 inhibitors, dose response, selectivity assay for caspase-6 inhibitor project, biochemical, DEVD-R110 fluorescence, cherry-pick (AID 743295)
T5 sequence (P55210 whole entry): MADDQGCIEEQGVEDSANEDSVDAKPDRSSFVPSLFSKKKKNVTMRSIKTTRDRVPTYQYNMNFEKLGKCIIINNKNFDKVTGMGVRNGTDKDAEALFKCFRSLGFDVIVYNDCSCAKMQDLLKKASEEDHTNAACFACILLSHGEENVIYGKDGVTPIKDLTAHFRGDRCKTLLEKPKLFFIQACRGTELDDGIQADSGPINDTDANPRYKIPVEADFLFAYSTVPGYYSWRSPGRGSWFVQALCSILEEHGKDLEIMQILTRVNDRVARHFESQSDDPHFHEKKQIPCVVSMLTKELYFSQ

[11] = NIH-3T3 fibroblast cytotoxicity, dose response, cytotoxicity control, cell-based, fluorescence, Alamar Blue, secondary assay (AID 2327); type: functional;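 note: NIH-3T3 mouse fibroblasts cultured with fluconazole at 8 µg/mL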
[12] = C. albicans growth with fluconazole, confirmation, fluorescence, retest (AID 2467); type: functional, cell-based
Albumin = Albumin (Bos taurus, UniProt P02769); assay: Counterscreen for inhibitors of T-cell receptor (TCR)-CD3 interaction: Fluorescence-based biochemical high throughput dose response assay to identify inhibitors of T-cell receptor (TCR)-CD3 interaction using a TAMRA-labeled BSA probe.; type: functional
Albumin, sequence (P02769 whole entry): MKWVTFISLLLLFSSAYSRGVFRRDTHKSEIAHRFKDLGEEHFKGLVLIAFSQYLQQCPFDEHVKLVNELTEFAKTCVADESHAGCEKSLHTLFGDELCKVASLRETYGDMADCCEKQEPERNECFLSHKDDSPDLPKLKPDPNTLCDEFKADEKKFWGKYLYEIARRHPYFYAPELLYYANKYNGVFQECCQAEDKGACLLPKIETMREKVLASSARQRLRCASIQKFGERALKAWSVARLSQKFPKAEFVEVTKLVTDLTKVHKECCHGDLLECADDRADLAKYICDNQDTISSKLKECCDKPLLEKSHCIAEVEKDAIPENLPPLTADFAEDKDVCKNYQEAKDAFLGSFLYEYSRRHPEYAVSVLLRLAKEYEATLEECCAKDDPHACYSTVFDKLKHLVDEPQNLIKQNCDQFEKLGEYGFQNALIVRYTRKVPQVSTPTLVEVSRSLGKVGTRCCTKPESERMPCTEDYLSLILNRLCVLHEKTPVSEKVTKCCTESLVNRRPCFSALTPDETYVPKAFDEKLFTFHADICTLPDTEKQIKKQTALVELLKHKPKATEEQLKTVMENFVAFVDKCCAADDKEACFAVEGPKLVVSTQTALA

[13] = target: Melanin-concentrating hormone receptor 1 (Homo sapiens, UniProt Q99705); assay: Fluorescence-based counterscreen for antagonists of the G-protein coupled receptor 7 (GPR7): cell-based high throughput dose response assay to identify antagonists of the melanin-concentrating hormone receptor 1 (MCHR1).; type: functional
Melanin-concentrating hormone receptor 1, sequence (Q99705 whole entry): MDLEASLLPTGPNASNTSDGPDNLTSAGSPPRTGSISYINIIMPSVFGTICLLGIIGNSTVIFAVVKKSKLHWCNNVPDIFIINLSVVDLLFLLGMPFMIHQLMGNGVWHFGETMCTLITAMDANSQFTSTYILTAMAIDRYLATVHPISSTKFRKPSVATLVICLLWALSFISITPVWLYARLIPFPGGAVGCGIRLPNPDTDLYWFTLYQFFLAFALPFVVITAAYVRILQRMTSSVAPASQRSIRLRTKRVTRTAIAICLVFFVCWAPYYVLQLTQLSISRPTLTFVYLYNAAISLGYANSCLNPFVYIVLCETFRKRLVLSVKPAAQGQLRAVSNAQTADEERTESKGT

[14] = target: T6, Neuropeptides B/W receptor type 1 (Homo sapiens, UniProt P48145); assay: Fluorescence-based dose response cell-based high throughput screening assay to identify antagonists of the G-protein coupled receptor 7 (GPR7). [Related pubchem assays: 1952 (Screening assay (GPR7 antagonists).), 1880 (Summary AID.)]; type: functional
T6 sequence (P48145 whole entry): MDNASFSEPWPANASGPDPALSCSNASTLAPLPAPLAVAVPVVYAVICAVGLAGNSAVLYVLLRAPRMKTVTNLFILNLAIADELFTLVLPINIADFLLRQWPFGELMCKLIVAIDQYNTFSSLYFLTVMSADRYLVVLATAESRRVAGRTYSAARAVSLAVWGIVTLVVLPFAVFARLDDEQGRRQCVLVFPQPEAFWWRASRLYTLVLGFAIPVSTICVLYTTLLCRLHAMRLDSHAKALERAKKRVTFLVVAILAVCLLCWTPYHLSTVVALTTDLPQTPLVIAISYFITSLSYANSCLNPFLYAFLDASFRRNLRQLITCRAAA

[15] = target: Rho-associated protein kinase 1 (Homo sapiens, UniProt Q13464); type: functional;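 note: measured within a broad kinome-wide panel profiling many kinases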
[16] = target: Vascular endothelial growth factor receptor 2 (Homo sapiens, UniProt P35968); type: functional
Vascular endothelial growth factor receptor 2, sequence (P35968 whole entry): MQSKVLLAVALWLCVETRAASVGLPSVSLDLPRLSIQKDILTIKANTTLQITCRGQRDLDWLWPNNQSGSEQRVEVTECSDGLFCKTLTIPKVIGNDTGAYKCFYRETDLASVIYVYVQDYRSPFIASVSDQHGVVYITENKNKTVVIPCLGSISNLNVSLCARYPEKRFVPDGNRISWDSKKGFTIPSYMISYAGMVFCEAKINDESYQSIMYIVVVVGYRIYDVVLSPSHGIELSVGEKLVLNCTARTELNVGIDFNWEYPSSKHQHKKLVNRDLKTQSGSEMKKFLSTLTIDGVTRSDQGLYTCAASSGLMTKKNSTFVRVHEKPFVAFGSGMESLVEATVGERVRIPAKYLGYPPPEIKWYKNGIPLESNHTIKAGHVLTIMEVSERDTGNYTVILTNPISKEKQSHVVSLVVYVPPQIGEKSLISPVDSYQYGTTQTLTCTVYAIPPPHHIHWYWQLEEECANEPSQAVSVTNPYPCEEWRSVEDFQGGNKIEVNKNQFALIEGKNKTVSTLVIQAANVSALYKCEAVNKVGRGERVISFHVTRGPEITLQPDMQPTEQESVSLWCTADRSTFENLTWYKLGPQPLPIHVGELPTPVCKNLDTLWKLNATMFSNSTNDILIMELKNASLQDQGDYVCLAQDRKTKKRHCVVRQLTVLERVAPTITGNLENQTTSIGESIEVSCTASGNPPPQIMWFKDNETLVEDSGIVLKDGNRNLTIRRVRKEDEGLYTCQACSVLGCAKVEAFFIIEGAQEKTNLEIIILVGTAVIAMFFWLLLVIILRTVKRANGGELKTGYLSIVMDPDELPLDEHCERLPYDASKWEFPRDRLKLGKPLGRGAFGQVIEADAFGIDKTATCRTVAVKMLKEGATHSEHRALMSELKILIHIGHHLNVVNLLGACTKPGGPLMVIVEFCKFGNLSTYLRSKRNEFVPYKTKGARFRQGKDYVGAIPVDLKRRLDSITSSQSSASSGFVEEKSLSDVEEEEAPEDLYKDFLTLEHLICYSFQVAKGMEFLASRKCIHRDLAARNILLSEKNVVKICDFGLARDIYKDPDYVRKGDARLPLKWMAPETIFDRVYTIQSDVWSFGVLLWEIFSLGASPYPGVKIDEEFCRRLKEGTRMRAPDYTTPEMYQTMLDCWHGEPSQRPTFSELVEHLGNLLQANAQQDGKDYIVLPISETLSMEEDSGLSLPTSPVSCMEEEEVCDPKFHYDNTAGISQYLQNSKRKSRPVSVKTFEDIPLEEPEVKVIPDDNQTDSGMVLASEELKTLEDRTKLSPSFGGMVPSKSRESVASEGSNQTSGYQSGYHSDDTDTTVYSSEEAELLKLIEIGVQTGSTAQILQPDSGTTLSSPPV

[17] = Late stage assay provider results from the probe development effort to identify inhibitors of the Plasmodium falciparum M18 Aspartyl Aminopeptidase (M18AAP): radiolabel-based cell-based dose response assay to identify compounds that inhibit P. falciparum growth in RBCs, Set 2..; type: functional
[18] = T. cruzi growth inhibition in host cells, dose response, cell-based, plate reader, dry powder, set 2 (AID 652275); type: functional
[19] = MITF: Counter assay: A375 proliferation Measured in Cell-Based System Using Plate Reader - 2084-03_Inhibitor_Dose_DryPowder_Activity_Set8.; type: functional; details: A-375
[20] = MITF Orthogonal Assay: SK-MEL-5 CTG Assay Measured in Cell-Based System Using Plate Reader - 2084-02_Inhibitor_Dose_DryPowder_Activity_Set7.; type: functional
cells [21] = type: functional, cell-based
cells [22] = type: functional, cell-based; remark: listed apart in the source
[23] = Vero E6 cell cytotoxicity, dose response, cytotoxicity control for non-replicating M. tuberculosis project, secondary assay (AID 492998); type: functional, VeroE6; details: Vero C1008
[24] = target: T7, DNA repair protein RAD52 homolog (Homo sapiens, UniProt P43351); type: functional, biochemical
T7 sequence (P43351 whole entry): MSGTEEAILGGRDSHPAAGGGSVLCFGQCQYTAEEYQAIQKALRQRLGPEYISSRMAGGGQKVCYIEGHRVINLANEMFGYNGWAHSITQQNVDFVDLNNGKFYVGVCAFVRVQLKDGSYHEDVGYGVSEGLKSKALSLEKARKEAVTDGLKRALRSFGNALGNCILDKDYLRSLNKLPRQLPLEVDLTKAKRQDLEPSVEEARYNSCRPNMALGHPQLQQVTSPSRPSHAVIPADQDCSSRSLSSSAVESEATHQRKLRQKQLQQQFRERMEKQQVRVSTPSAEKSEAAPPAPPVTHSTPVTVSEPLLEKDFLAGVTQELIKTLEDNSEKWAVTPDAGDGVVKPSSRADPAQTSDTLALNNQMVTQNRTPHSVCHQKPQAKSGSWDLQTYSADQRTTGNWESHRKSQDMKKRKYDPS

cells [25] = type: functional
[26] = THP-1 cell cytotoxicity, dose response, cytotoxicity control for non-replicating M. tuberculosis project (AID 489025); type: functional

CCCCn1c(NC(=O)CC)c(C#N)c2nc3ccccc3nc21
IC50 (Estrogen receptor): 23.4 µM (active) | Ki (fMet-Leu-Phe receptor): 24.2 µM (inactive) | IC50 [1]: 1.55 µM (active)

Cn1ncc2c(NNC(=O)c3ccc(Cl)cc3Cl)ncnc21
IC50 [2]: > 50 µM (not active) | IC50 [3]: > 50 µM (not active)

COc1ccccc1N1C(=O)NC(=O)/C(=C/c2ccc3c4c(cccc24)CC3)C1=O
IC50 [4]: 2.23 µM (active)

Cc1ccc(C)c(N(C(=O)c2snc(C(N)=O)c2N)C(C(=O)NCC2CCCO2)c2cccs2)c1 (configuration not stated)
IC50 [4]: > 1.11 µM (active)

OC(COCC(F)(F)C(F)(F)C(F)(F)C(F)F)Cn1c2ccccc2c2ccccc21 (configuration not stated)
IC50 [5]: > 69.5 µM (inactive) | IC50 [6]: > 7.73 µM (active) | EC50 [7]: > 60 µM (inconclusive) | EC50 [8]: 1.71 µM (active) | AC50 [9]: 2.9 µM (active)

CC(=O)NN1C(=O)/C(=C\c2ccc(Br)o2)SC1=S
CC50 [10]: > 40 µM (active)

COc1ccc(NC(=O)CN(C)C(=O)c2cccc(-n3cccc3)c2)cc1
AC50 (Caspase-6): 4.5 µM (active) | IC50 (Protein Tat): > 100 µM (active) | AC50 (Caspase-8): 61.2 µM (active) | AC50 (Caspase-7): > 70 µM (inactive)

Cc1ccc(C(=O)NNC(=O)c2cc3ccccc3cc2O)cc1
EC50 [11]: > 160 µM (inactive) | EC50 [12]: 3.16 µM (active) | IC50 (Albumin): > 94.1 µM (inactive)

CN(C(=O)CN1C(=O)C2C3CC(C(Br)C3Br)C2C1=O)C1CCCCC1 (configuration not stated)
IC50 [13]: > 43.8 µM (not active) | IC50 [14]: 13.4 µM (not active)

C=CCC[C@H](Cc1ccc(F)cc1)C(=O)OC[C@@H](Cc1c[nH]c2ccccc12)NC(=O)[C@@H](CC=C)CC(=O)N(CCO)Cc1ccccc1
IC50 [5]: > 69.5 µM (inactive) | IC50 [6]: > 69.5 µM (inactive) | AC50 [9]: 4.62 µM (active)

Oc1cc(O)cc(C=Cc2ccc(O)c(O)c2)c1
AC50 (Caspase-6): 1.2 µM (active) | AC50 (Caspase-8): > 70 µM (inactive) | AC50 (Caspase-7): > 70 µM (inactive) | Ki [15]: 2.51 µM (active) | Ki [16]: > 2.51 µM (inactive)

Oc1cccc(CCNc2ccnc3ccccc23)c1O
IC50 [17]: 2.7 µM (active)

CC(C)N1C[C@H](C)[C@@H](CN(C)Cc2ccc(Oc3ccccc3)cc2)Oc2c(cccc2-c2cn(-c3ccncc3)nn2)C1=O
AC50 [18]: 0.0204 µM (active)

Cc1cccc(-c2ccc([C@H]3[C@H](CO)N4CCCCN(C(=O)c5ccncc5)C[C@@H]34)cc2)c1
AC50 [18]: 2.46 µM (active)

O=C1C=C(Nc2ccc3ccccc3c2)C(=O)c2ccccc21
AC50 [19]: 49.4 µM (active) | AC50 [20]: 1.65 µM (active)

NCCNc1c2ccccc2nc2ccccc12
IC50 [17]: 0.5 µM (active)

Cc1cc(N/N=C/c2ccccc2O)c2ccccc2n1
IC50 (cells [21]): > 29.9 µM (inactive) | EC50 (cells [22]): > 29.9 µM (inactive) | CC50 [23]: 17.6 µM (active) | AC50 [24]: 5.36 µM (active) | IC50 (cells [25]): 7.92 µM (active) | CC50 [26]: 25.6 µM (active)
